Results taken from patent US12509420B2, “Compound as a UBR box domain ligand” (AUTOTAC INC., priority 2020, dated 2025).
Peptide text beside a SMILES is read from it. * marks the point of attachment. Cbz = O=C(OCc1ccccc1)*

Experiments:
UBR1 [1] = target: T1, UBR1 (Rattus norvegicus, UniProt A0A8I5ZK69); assay: Inhibition of muscle cell actin degradation by immunoblotting (L6 cells); format: cell-based; conditions: compound 5 uM alone, 24 hours, immunoblot
T1 construct: endogenous in cells; host or cells: L6 rat muscle-derived cells
T1 sequence (A0A8I5ZK69 1-1749): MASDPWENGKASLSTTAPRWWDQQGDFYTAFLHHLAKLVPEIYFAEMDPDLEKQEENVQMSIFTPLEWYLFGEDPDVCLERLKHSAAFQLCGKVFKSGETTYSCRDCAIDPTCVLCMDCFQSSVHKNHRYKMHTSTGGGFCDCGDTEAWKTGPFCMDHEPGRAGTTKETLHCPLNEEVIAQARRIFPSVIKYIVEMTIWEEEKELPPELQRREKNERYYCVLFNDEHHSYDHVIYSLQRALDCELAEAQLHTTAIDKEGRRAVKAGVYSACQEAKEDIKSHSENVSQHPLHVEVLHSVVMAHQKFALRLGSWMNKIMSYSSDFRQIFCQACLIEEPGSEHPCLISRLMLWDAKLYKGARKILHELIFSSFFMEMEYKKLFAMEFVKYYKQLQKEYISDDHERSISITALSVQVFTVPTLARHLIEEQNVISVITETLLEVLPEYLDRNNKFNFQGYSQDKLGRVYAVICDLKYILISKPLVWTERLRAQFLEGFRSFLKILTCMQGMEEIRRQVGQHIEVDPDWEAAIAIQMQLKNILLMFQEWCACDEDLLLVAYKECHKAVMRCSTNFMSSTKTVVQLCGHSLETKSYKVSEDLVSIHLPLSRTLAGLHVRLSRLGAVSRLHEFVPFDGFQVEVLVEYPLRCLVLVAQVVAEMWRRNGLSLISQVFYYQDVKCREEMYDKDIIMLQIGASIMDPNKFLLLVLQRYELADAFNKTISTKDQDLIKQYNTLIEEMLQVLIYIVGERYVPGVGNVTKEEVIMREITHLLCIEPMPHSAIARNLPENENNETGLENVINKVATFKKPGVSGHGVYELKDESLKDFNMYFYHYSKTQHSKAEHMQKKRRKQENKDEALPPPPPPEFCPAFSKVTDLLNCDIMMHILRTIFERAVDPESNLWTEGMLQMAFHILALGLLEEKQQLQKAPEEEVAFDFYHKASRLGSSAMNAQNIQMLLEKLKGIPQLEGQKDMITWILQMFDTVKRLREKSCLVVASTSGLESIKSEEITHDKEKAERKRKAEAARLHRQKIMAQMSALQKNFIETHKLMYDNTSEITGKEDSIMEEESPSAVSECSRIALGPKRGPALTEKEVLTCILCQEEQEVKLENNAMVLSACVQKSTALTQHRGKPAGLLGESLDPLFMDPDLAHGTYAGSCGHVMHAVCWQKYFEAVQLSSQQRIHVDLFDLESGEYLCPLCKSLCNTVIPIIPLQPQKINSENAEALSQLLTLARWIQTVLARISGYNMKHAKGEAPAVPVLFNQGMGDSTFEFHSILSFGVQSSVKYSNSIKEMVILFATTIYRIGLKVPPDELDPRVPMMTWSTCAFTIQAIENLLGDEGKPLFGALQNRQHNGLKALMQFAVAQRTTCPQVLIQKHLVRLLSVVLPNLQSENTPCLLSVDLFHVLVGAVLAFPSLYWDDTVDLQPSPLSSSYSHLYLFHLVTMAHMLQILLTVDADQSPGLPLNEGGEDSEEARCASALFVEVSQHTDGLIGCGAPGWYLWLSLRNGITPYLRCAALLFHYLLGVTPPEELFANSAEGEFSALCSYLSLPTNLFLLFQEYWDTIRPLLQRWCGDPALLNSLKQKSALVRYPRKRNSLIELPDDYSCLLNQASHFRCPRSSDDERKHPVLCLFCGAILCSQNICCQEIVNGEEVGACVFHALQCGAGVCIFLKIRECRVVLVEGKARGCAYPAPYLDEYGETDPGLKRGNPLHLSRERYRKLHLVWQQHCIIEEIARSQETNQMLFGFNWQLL
Procedure: To evaluate the actin degradation of compounds in muscle cells, a L6 cell line, which is a rat muscle-derived cell, was cultured using a DMEM medium containing 10% FBS and 1% streptomycin/penicillin in an incubator in which 5% carbon dioxide was maintained. In order to measure the UBR1 binding strength according to the treatment with a representative compound selected from the present compounds, cells were aliquoted into a 12-well plate. The cells were additionally cultured for 24 hours so as to be completely attached to the surface of the plate. […] To extract proteins from the collected cells, 50 uL of a lysis buffer (20 mM Tris, pH 7.4, 150 mM NaCl, 1% Triton-X-100, 2 mM NaF, 2 mM EDTA, 2 mM b-glycerophosphate, 5 mM sodium orthovanadate, 1 mM PMSF, leupeptin, aprotenin) was injected into each sample, and the cells were lysed. A sample buffer was added to each sample based on the measured total protein concentration, and the mixture was reacted at 100° C. for 5 minutes. After 5 uL was taken from the completely reacted sample and aliquoted into each well of an acrylamide gel, an immunoblotting method was performed, and the experimental results were illustrated in [FIG. 3]. For the immunoblotting method, a representative experiment was schematized from three or more independent experiments.

UBR1 [2] = assay: Inhibition of R-nsP4 degradation by in vitro transcription/translation method; format: biochemical; conditions: compound 1 uM, 30° C. for 40 minutes, DHFR-Ub-R-nsP4 plasmid, compared to the control
Procedure: A TnT® Quick Coupled Transcription/Translation System kit was used to confirm the R-nsP4 expression of the compounds. After a pre-mix was made using Transcend Biotin-Lysyl-tRNA, methionine, bestatin, a TnTquick Master mix and a DHFR-Ub-R-nsP4 plasmid, the pre-mix was mixed with a compound (1 uM). After each sample was reacted at 30° C. for 40 minutes, a 5×SDS loading dye was added thereto. After the resulting mixture was reacted at 95° C. for 2 minutes, 5 uL was taken and aliquoted into each well of an acrylamide gel, and then an immunoblotting method was performed, and the experimental results are illustrated in [FIG. 2]. For an in vitro transcription/translation method, a representative experiment was schematized from three or more independent experiments.

L6 cell line = assay: Immunoblotting of muscle actin levels in L6 cells after MG132 treatment; format: cell-based, rat; conditions: MG132 10 uM alone, 24 hours, immunoblot, compared to a control
Procedure: A L6 cell line, which is a rat muscle-derived cell, was cultured using a DMEM medium containing 10% FBS and 1% streptomycin/penicillin in an incubator in which 5% carbon dioxide was maintained, and cells were aliquoted into a 12-well plate after the culture. The cells were additionally cultured for 24 hours so as to be completely attached to the surface of the plate. To confirm whether MG132 increased UBR1 binding, cells were collected after treatment with MG132 (10 uM) alone for 24 hours. To extract proteins from the collected cells, 50 uL of a lysis buffer (20 mM Tris, pH 7.4, 150 mM NaCl, 1% Triton-X-100, 2 mM NaF, 2 mM EDTA, 2 mM b-glycerophosphate, 5 mM sodium orthovanadate, 1 mM PMSF, leupeptin, aprotenin) was injected into each sample, and the cells were lysed. A sample buffer was added to each sample based on the measured total protein concentration, and the mixture was reacted at 100° C. for 5 minutes. After 5 uL was taken from the completely reacted sample and aliquoted into each well of an acrylamide gel, an immunoblotting method was performed, and the experimental results are illustrated in [FIG. 1].
For the immunoblotting method, a representative experiment was schematized from three or more independent experiments.
Referring to FIG. 1, it was confirmed that the levels of ACTA1, ACTC1, and ACTG2 were increased by MG132 compared to a control. Further, it was confirmed that the levels of ACTA1 and ACTG2 were increased when a UBR protein was knocked down. That is, it could be confirmed that muscle actin is an Arg/N-degron pathway substrate.

Structure (SMILES) | level of ACTA1 (UBR1 [1]) | level of R-nsP4 (UBR1 [2]) | level of ACTA1 (L6 cell line) | level of ACTC1 (L6 cell line) | level of ACTG2 (L6 cell line)
COCCCCC(=O)Nc1cc(C(C)=O)ccc1Cl [Compound 1, N-(5-acetyl-2-chlorophenyl)-5-methoxypentanamide] | further increased | increased |  |  | 
COCCCCC(=O)Nc1cc(C(N)=O)ccc1Cl [Compound 2, 4-chloro-3-(5-methoxypentanamido)benzamide] | further increased | increased |  |  | 
CC(C)C[C@@H](C=O)NC(=O)[C@H](CC(C)C)NC(=O)[C@H](CC(C)C)NC(=O)OCc1ccccc1 [MG132] (Cbz-Leu-Leu-Leu-aldehyde) |  |  | increased | increased | increased
